In patent US6423711B1 (dated 2002) one finds melting point data, which are given here for 44 compounds.

Where a name gives a salt, the structure may show the parent alone. A value given as a limit tells only on which side of the number the result lay.

As usually defined, the melting point is the temperature of the solid-liquid transition. `CCNC(=O)N1CCN(c2cc(-c3ccccc3)nc3ccsc23)CC1.Cl`: the melting point is > 240 °C (dec.).
To `CCNC(=O)N1CCN(c2cc(-c3cccc(OC)c3)nc3ccsc23)CC1.Cl` belongs above 198 °C; to `Cl.O=C(NCCCCl)N1CCN(c2cc(-c3ccc(F)cc3)nc3ccsc23)CC1`, 235 to 238 °C (dec.); to `CCNC(=O)N1CCN(c2cc(-c3ccc(F)cc3)nc3ccsc23)CC1.Cl`, > 147 °C (dec.).
The figure for `CNC(=O)N1CCN(c2cc(-c3ccccc3)nc3ccsc23)CC1.Cl` is 185 to 190 °C; for `CCNC(=O)C1CCN(c2cc(-c3ccccc3)nc3cccnc23)CC1.Cl` it is > 210 °C (dec.); for `CNC(=O)C1CCN(c2cc(-c3ccccc3)nc3ccsc23)CC1.Cl` it is > 260 °C (dec.).
`CCCNC(=O)C1CCN(c2cc(-c3ccccc3)nc3ccsc23)CC1.Cl`: the melting point is 159 to 160 °C (dec.).
To `CC(C)(C)NC(=O)C1CCN(c2cc(-c3ccccc3)nc3ccsc23)CC1.Cl` belongs 270 to 272 °C (dec.).
The figure for `CCCCNC(=O)C1CCN(c2cc(-c3ccccc3)nc3ccsc23)CC1.Cl` is 170 to 172 °C (dec.); for `Cl.O=C(NC1CC1)C1CCN(c2cc(-c3ccccc3)nc3ccsc23)CC1` it is 199 to 201 °C (dec.); for `Cl.NC(=O)C1CCN(c2cc(-c3ccccc3)nc3ccsc23)CC1` it is 303 to 305 °C (dec.).
The figure for `Cl.NCCNC(=O)C1CCN(c2cc(-c3ccccc3)nc3ccsc23)CC1` is 176 to 178 °C (dec.); for `CCNCCNC(=O)C1CCN(c2cc(-c3ccccc3)nc3ccsc23)CC1.Cl` it is > 95 °C (dec.).
Consider `CN(C)CCNC(=O)C1CCN(c2cc(-c3ccccc3)nc3ccsc23)CC1.Cl`, for which the melting point was > 150 °C (dec.).
Regarding `COCCCNC(=O)C1CCN(c2cc(-c3ccccc3)nc3ccsc23)CC1.Cl`, the melting point is 147 to 149 °C (dec.).
With `Cl.O=C(NCc1ccccc1)C1CCN(c2cc(-c3ccccc3)nc3ccsc23)CC1`, the melting point is 163 to 165 °C (dec.).
The figure for `Cl.O=C(NCc1cccc(F)c1)C1CCN(c2cc(-c3ccccc3)nc3ccsc23)CC1` is 236 to 238 °C (dec.); for `NC(=O)C1CCN(c2cc(-c3ccccc3F)nc3ccsc23)CC1` it is 194 to 195 °C.
The figure for `Cl.O=C(NCc1ccc(F)cc1)C1CCN(c2cc(-c3ccccc3)nc3ccsc23)CC1` is 190 to 192 °C (dec.); for `Cc1ccc(CNC(=O)C2CCN(c3cc(-c4ccccc4)nc4ccsc34)CC2)cc1.Cl` it is 177 to 178 °C (dec.); for `Cl.O=C(NCc1cccs1)C1CCN(c2cc(-c3ccccc3)nc3ccsc23)CC1` it is > 230 °C (dec.).
For `COc1cccc(-c2cc(N3CCC(C(N)=O)CC3)c3sccc3n2)c1.Cl`, the melting point was 133 to 135 °C (dec.).
To `CCNC(=O)C1CCN(c2cc(-c3cccc(OC)c3)nc3ccsc23)CC1.Cl` belongs > 230 °C (dec.); to `CCOc1ccc(-c2cc(N3CCC(C(N)=O)CC3)c3sccc3n2)cc1.Cl`, 211 to 213 °C (dec.).
With `CCOc1ccc(-c2cc(N3CCC(C(=O)NCc4ccccn4)CC3)c3sccc3n2)cc1.Cl`, the melting point was 178 to 180 °C (dec.).
`CCNC(=O)C1CCN(c2cc(-c3ccc(F)cc3)nc3ccsc23)CC1.Cl`: the melting point is 220 to 222 °C (dec.).
To `CCCNC(=O)C1CCN(c2cc(-c3ccc(F)cc3)nc3ccsc23)CC1.Cl` belongs 207 to 209 °C (dec.); to `Cl.NCCNC(=O)C1CCN(c2cc(-c3ccc(F)cc3)nc3ccsc23)CC1`, 115 to 118 °C (dec.); to `CN(C)CCNC(=O)C1CCN(c2cc(-c3ccc(F)cc3)nc3ccsc23)CC1.Cl`, 180 to 182 °C (dec.).
To `Cl.O=C(NCCO)C1CCN(c2cc(-c3ccc(F)cc3)nc3ccsc23)CC1` belongs 198 to 200 °C (dec.).
To `Cl.O=C(NCCO)C1CCN(c2cc(-c3ccccc3)nc3ccsc23)CC1` belongs > 220 °C (dec.).
`CCNC(=O)C1CCN(c2cc(-c3ccncc3)nc3ccsc23)CC1.Cl`: the melting point was > 227 °C (dec.).
The figure for `COC(=O)C1CCN(c2cc(-c3ccccc3)nc3sccc23)CC1.Cl` is > 220 °C (dec.); for `NC(=O)C1CCN(c2cc(-c3ccc(F)cc3)nc3ccsc23)CC1` it is 251 to 253 °C.
`COc1cccc(-c2cc(N3CCN(C(=O)c4ccncc4)CC3)c3sccc3n2)c1` (as salt: hydrochloride): the melting point fell in the range of 215 to 217 °C.
Turning to `O=C(NC1CCCC1)C1CCN(c2cc(-c3ccccc3)nc3ccsc23)CC1` (as salt: hydrochloride), the melting point is 179 to 181 °C (dec.).
Take `COCCNC(=O)C1CCN(c2cc(-c3ccccc3)nc3ccsc23)CC1` (as salt: hydrochloride): the melting point was 157 to 160 °C (dec.).
The figure for `O=C(NCC1CCCO1)C1CCN(c2cc(-c3ccccc3)nc3ccsc23)CC1` (centres unmarked) (as salt: hydrochloride) is > 210 °C (dec.).
The figure for `O=C(NCc1ccncc1)C1CCN(c2cc(-c3ccccc3)nc3ccsc23)CC1` (as salt: hydrochloride) is 176 to 178 °C (dec.); for `NC(=O)C1CCN(c2cc(-c3ccc(F)cc3)nc3ccsc23)CC1` (as salt: hydrochloride) it is > 303 °C (dec.); for `COC(C)CNC(=O)C1CCN(c2cc(-c3ccc(F)cc3)nc3ccsc23)CC1` (centres unmarked) (as salt: hydrochloride) it is 179 to 180 °C (dec.).
The figure for `COc1cccc(-c2cc(N3CCN(C(=O)c4ccc(F)cc4)CC3)c3sccc3n2)c1` (as salt: hydrochloride) is > 174 °C (dec.).
The compound `c1ccc(-c2cc(N3CCOCC3)c3sccc3n2)cc1` (as salt: hydrochloride) showed a melting point of 195 to 198 °C.
